Target: T1, human T-type channel alpha-1H (CaV 3.2) (Homo sapiens, UniProt O95180)
T1 construct: expressed in transfected cells; host or cells: HEK 293
Experiment: Ca2+ Influx Assay (cell-based fluorescent, FDSS)
Settings: HEK 293 cells expressing human CaV 3.2
Procedure: Inhibition of T-type calcium channel activity was determined by cell-based flu-orescent Ca^2+ influx assay, in which potassium ionophore was added to decrease resting membrane potential and extra-cellular high-K^+ stimulation was used to modulate the membrane potential of the cell. The changes in fluorescent signal were monitored by the cell imaging technology by Hamamatsu Photonics's Functional Drug Screening System (FDSS).
HEK 293 cells expressing the human T-type channel alpha-1H (CaV 3.2) were maintained in DMEM supplemented with 10% heat-inactivated FBS, 100 units/ml Penicillin, 100 microg/ml Streptomycin, 150 microg/ml Zeocin, 300 microg/ml Geneticin. The cells were grown in a 5% CO2 humidified incubator at 37° C.
• 1. Cells were harvested and seeded in a poly-D-lysine coated black-sided clear bottom 384-well plate at density of 10,000 cells/well at 24 hours prior to assay. • 2. Incubate at 37° C. in 5% CO2. Day Two: • 1. Wash each well with assay buffer (see below) and leave 20 RI using plate washer, ELx-405 Select CW (BIO-TEK). • 2. Add 20 μL of assay buffer containing 6 μM Fluo-4-AM (Molecular Probes) and 0.005% Pluronic F-127 to each well. • 3. Incubate the plate at 37° C. for 1 hour. • 4. Wash each well assay buffer (see below) and leave 20 μl using plate washer, ELx-405 Select CW (BIO-TEK). • 5. Add 10 μl of compound solution into each well by FDSS6000 and leave the plate for 4.5 min, and then add 10 μl of potassium ionophore solution. • 6. Add 20 μl of high-K^+ depolarizing solution (see below) and monitor the change of fluorescent signal.
The IC50 values for compounds of the present invention were determined from 7-point dose-response studies. Curves were generated using the average of duplicate wells for each data point. Finally, the IC50 values are calculated with the best-fit dose curve determined by XLfit.

T1 sequence (O95180 whole entry): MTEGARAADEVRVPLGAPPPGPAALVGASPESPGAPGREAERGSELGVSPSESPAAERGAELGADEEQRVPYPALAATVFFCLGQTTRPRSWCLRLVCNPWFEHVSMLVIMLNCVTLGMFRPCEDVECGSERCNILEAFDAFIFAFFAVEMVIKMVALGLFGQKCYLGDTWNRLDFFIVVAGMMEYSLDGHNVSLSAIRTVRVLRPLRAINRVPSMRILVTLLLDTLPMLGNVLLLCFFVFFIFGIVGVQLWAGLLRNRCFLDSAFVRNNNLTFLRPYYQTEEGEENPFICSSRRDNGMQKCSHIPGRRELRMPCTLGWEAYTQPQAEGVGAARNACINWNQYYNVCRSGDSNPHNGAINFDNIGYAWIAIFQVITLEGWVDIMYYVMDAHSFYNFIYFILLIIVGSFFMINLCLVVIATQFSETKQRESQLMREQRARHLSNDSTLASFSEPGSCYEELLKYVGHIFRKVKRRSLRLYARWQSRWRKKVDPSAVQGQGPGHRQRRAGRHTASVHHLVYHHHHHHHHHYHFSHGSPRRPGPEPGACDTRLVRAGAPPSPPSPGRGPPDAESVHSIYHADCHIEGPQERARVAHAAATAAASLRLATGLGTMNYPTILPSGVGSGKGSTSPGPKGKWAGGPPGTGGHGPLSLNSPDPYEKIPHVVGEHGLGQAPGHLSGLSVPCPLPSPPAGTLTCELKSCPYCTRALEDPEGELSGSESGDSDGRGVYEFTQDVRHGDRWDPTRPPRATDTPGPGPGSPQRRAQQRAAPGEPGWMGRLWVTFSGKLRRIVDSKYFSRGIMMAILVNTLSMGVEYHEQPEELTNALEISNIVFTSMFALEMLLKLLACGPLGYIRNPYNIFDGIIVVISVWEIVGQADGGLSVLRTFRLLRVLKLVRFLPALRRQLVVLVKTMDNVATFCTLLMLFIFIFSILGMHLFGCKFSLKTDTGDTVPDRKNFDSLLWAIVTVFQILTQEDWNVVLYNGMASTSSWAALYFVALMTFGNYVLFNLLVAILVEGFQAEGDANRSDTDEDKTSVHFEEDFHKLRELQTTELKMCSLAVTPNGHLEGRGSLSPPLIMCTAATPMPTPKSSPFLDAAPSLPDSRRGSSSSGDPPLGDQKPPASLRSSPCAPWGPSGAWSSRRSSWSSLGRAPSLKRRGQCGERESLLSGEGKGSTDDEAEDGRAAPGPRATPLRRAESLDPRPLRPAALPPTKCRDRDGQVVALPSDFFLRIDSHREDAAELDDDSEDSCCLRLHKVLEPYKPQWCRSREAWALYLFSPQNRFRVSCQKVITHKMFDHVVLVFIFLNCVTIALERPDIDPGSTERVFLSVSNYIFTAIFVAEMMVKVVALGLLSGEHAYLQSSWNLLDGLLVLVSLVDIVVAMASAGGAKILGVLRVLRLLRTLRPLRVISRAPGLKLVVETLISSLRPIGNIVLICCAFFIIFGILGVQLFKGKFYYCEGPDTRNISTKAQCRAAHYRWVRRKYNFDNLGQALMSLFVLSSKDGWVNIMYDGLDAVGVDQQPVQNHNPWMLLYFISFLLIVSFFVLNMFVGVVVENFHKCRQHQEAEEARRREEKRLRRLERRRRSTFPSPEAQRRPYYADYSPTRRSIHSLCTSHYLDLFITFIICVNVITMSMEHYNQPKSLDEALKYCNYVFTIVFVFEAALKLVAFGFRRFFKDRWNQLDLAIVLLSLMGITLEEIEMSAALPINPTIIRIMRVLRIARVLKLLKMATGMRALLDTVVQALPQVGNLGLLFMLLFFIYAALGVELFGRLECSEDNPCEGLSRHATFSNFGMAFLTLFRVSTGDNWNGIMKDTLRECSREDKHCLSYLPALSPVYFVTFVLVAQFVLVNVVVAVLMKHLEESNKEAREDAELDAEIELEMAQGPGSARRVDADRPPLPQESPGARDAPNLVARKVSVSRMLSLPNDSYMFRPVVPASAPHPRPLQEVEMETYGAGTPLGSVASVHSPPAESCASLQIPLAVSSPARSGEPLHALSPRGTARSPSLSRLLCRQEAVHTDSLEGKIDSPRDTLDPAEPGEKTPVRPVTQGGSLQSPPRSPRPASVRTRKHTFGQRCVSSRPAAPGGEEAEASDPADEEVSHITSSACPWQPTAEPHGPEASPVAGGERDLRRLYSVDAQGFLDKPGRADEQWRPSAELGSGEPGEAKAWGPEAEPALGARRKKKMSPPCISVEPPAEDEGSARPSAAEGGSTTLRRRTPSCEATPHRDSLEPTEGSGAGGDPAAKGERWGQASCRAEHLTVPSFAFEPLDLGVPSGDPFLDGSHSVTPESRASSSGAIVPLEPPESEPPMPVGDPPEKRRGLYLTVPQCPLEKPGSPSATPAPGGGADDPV

| Compound | IC50 |
| --- | --- |
| C[C@@H](NC(=O)[C@H]1C[C@@H]1c1ccccc1)c1ccc(OCC(F)(F)F)nc1 (relative stereo) [Example 284, (1S*,2S*)-2-phenyl-N-((R)-1-(6-(2,2,2-trifluoroethoxy)pyridin-3-yl)ethyl)cyclopropanecarboxamide] | ≤ 300 nM |
| Cc1cc(OCC(F)(F)F)cnc1[C@@H](C)NC(=O)CCc1c[nH]c2ccccc12 [Example 104, (R)-3-(1H-indol-3-yl)-N-(1-(3-methyl-5-(2,2,2-trifluoroethoxy)pyridin-2-yl)ethyl)propanamide] | ≤ 300 nM |
| C[C@@H](NC(=O)[C@H]1C[C@@H]1c1cc2ccccc2[nH]1)c1ccc(OCC(F)(F)F)nc1 (relative stereo) [Example 223, (1S*,2S*)-2-(1H-indol-2-yl)-N-((R)-1-(6-(2,2,2-trifluoroethoxy)pyridin-3-yl)ethyl)cyclopropanecarboxamide] | ≤ 300 nM |
| C[C@@H](NC(=O)[C@H]1C[C@@H]1c1cc(F)ccc1F)c1ccc(OCC(F)(F)F)cn1 (relative stereo) [Example 327, (1S*,2S*)-2-(2,5-difluorophenyl)-N-((R)-1-(5-(2,2,2-trifluoroethoxy)pyridin-2-yl)ethyl)cyclopropanecarboxamide] | ≤ 300 nM |
| C[C@@H](NC(=O)C1CC1c1cc2cc(F)ccc2[nH]1)c1ccc(OCC(F)(F)F)nc1 (stereo partly drawn) [Example 210, trans-2-(5-fluoro-1H-indol-2-yl)-N-((R)-1-(6-(2,2,2-trifluoroethoxy)pridin-3-yl)ethyl)cyclopropanecarboxamide] | ≤ 300 nM |
| C[C@@H](NC(=O)[C@@H]1C[C@H]1c1cccc2[nH]ccc12)c1cnc(OCC(F)(F)F)cn1 (relative stereo) [Example 279, (1R*,2R*)-2-(1H-Indol-4-yl)-N-((R)-1-(5-(2,2,2-trifluoroethoxy)pyrazin-2-yl)ethyl)cyclopropanecarboxamide] | ≤ 300 nM |
| C[C@@H](NC(=O)[C@@H]1C[C@H]1c1nc2cc(F)ccc2[nH]1)c1ccc(OCC(F)(F)F)nc1 (relative stereo) [Example 289, (1R*,2R*)-2-(5-fluoro-1H-benzo[d]imidazol-2-yl)-N-((R)-1-(6-(2,2,2-trifluoroethoxy)pyridin-3-yl)ethyl) cyclopropanecarboxamide] | ≤ 300 nM |
| C[C@@H](NC(=O)[C@H]1C[C@@H]1c1ccccc1)c1cnc(OCC(F)(F)F)cn1 (relative stereo) [Example 282, (1S*,2S*)-2-phenyl-N-((R)-1-(5-(2,2,2-trifluoroethoxy)pyrazin-2-yl)ethyl)cyclopropanecarboxamide] | ≤ 300 nM |
| C[C@@H](NC(=O)C1CC1c1nc2ccccc2n1C)c1ccc(OCC(F)(F)F)nc1 (stereo in doubt) [Example 245, trans-2-(1-methyl-1H-benzo[d]imidazol-2-yl)-N-((R)-1-(6-(2,2,2-trifluoroethoxy)pyridin-3-yl)ethyl)cyclopropanecarboxamide] | ≤ 300 nM |
| COc1ccc([C@H]2C[C@@H]2C(=O)N[C@H](C)c2ccc(OCC3CC3)cn2)c(F)c1 (relative stereo) [Example 263, (1S*,2S*)-N-((R)-1-(5-(cyclopropylmethoxy)pyridin-2-yl)ethyl)-2-(2-fluoro-4-methoxy-phenyl)cyclopropanecarboxamide] | ≤ 300 nM |
| C[C@@H](NC(=O)[C@H]1C[C@@H]1COc1ccc(F)cc1)c1ccc(OCC(F)(F)F)cn1 (relative stereo) [Example 296, (1S*,2S*)-2-((4-fluorophenoxy)methyl)-N-((R)-1-(5-(2,2,2-trifluoroethoxy)pyridin-2-yl)ethyl)cyclopropanecarboxamide] | ≤ 300 nM |
| C[C@@H](NC(=O)COc1ccc(C(F)(F)F)cc1)c1ccc(OCC(F)(F)F)cn1 [Example 3, (R)-N-(1-(5-(2,2,2-trifluoroethoxy)pyridin-2-yl)ethyl)-2-(4-(trifluoromethyl)phenoxy)acetamide] | ≤ 300 nM |
| C[C@@H](NC(=O)C1CC1c1ccc2cnn(C)c2c1)c1ccc(OCC(F)(F)F)nc1 (stereo partly drawn) [Example 228, trans-2-(1-methyl-1H-indazol-6-yl)-N-((R)-(6-(2,2,2-trifluoroethoxy)pyridin-3-yl)ethyl)cyclopropanecarboxamide] | ≤ 300 nM |
| C[C@@H](NC(=O)[C@H]1C[C@@H]1c1nc2ccccc2[nH]1)c1ccc(OCC(F)(F)F)nc1 (relative stereo) [Example 287, (1S*,2S*)-2-(1H-benzo[d]imidazol-2-yl)-N-((R)-1-(6-(2,2,2-trifluoroethoxy)pyridin-3-yl)ethyl)cyclopropanecarboxamide] | ≤ 300 nM |
| C[C@@H](NC(=O)C1CC1c1ccc2ccn(CC3(C)COC3)c2c1)c1cnc(OCC(F)(F)F)cn1 (stereo in doubt) [Example 190, trans-2-(1-((3-methyloxetan-3-yl)methyl)-1H-indol-6-yl)-N-((R)-1-(5-(2,2,2-trifluoro-ethoxy)pyrazin-2-yl)ethyl)cyclopropanecarboxamide] | ≤ 300 nM |
| C[C@@H](NC(=O)[C@H]1C[C@@H]1c1cccc2cc[nH]c12)c1ccc(OCC(F)(F)F)cn1 (relative stereo) [Example 275, (1S*,2S*)-2-(1H-indol-7-yl)-N-((R)-1-(5-(2,2,2-trifluoroethoxy)pyridin-2-yl)ethyl)cyclopropanecarboxamide] | ≤ 300 nM |
| C[C@@H](NC(=O)[C@H]1C[C@@H]1COc1ccccc1)c1cnc(OCC(F)(F)F)cn1 (relative stereo) [Example 318, (1S*,2S*)-2-(phenoxymethyl)-N-((R)-1-(5-(2,2,2-trifluoroethoxy)pyrazin-2-yl)ethyl)cyclopropanecarboxamide] | ≤ 300 nM |
| C[C@@H](NC(=O)[C@@H]1C[C@H]1c1nc2ccccc2[nH]1)c1ccc(OCC(F)(F)F)cn1 (relative stereo) [Example 260, (1R*,2R*)-2-(1H-benzo[d]imidazol-2-yl)-N-((R)-1-(5-(2,2,2-trifluoroethoxy)pyridin-2-yl)ethyl)cyclopropanecarboxamide] | ≤ 300 nM |
| C[C@@H](NC(=O)[C@H]1C[C@@H]1c1ccc2cc[nH]c2c1)c1ccc(OCC(F)(F)F)cn1 (relative stereo) [Example 203, (1S*,2S*)-2-(1H-indol-6-yl)-N-((R)-1-(5-(2,2,2-trifluoroethoxy)pyridin-2-yl)ethyl)cyclopropanecarboxamide] | ≤ 300 nM |
| C[C@@H](NC(=O)C1CC1c1ccc2ccn(C)c2c1)c1ccc(OCC(F)(F)F)cn1 (stereo in doubt) [Example 167, trans-2-(1-methyl-1H-indol-6-yl)-N-((R)-1-(5-(2,2,2-trifluoroethoxy)pyridin-2-yl)ethyl)cyclopropanecarboxamide] | ≤ 300 nM |
| C[C@@H](NC(=O)[C@H]1C[C@@H]1c1cccc(OCc2ccccc2)c1)c1ccc(OCC(F)(F)F)cn1 (stereo in doubt) [Example 240, (1S*,2S*)-2-(3-(benzyloxy)phenyl)-N-((R)-1-(5-(2,2,2-trifluoroethoxy)pyridin-2-yl)ethyl)cyclopropanecarboxamide] | ≤ 300 nM |
| C[C@@H](NC(=O)[C@@H]1C[C@H]1c1cc2ccccc2[nH]1)c1ccc(OCC(F)(F)F)nc1 (relative stereo) [Example 224, (1R*,2R*)-2-(1H-indol-2-yl)-N-((R)-1-(6-(2,2,2-trifluoroethoxy)pyridin-3-yl)ethyl)cyclopropanecarboxamide] | ≤ 300 nM |

From patent US9101616B2, “Aryl substituted carboxamide derivatives as calcium or sodium channel blockers” (RaQualia Pharma Inc., priority 2009, dated 2015)
